From US11180504B2 (ORCHID PHARMA LTD., priority 2016, dated 2021) come the findings set out here.

≈ marks a conversion by molar mass, not a printed value. Read-outs that look alike come from different tables or passages of the source.

Assay [1] has as its system carbapenem sensitive Pseudomonas aeruginosa. In words: MIC by broth micro-dilution (CLSI), carbapenem sensitive P. aeruginosa. It counts as cell-based. In general terms: Broth dilution looks for growth in wells or tubes with falling amounts of substance.
The test system of assay [2] is carbapenemase producing K. pneumoniae. In words: MIC by broth micro-dilution (CLSI), carbapenemase producing K. pneumoniae. It counts as cell-based, Klebsiella pneumoniae.
In assay [3] the test system is methicillin-sensitive Staphylococcus aureus. Kind of assay: MIC by broth micro-dilution (CLSI), methicillin-sensitive S. aureus. As to conditions: MSSA S. aureus ATCC29213. It counts as cell-based.
For assay [4], the system named is carbapenem sensitive Escherichia coli. In words: MIC by broth micro-dilution (CLSI), carbapenem sensitive E. coli. It counts as cell-based.
[5] abbreviates: Pseudomonas aeruginosa, ATCC27853, Meropenem susceptible P. aeruginosa ATCC27853, read-out: MIC.
Where [6] appears, read: Klebsiella pneumoniae, ATCCBAA1705, KPC-2 K. pneumoniae ATCC BAA-1705, read-out: MIC.
The mark [7] stands for this setting: Staphylococcus aureus, ATCC 29213 / MSSA, read-out: MIC.
[8] abbreviates: Escherichia coli, ATCC25922, ESBL −ve E. coli ATCC25922, read-out: MIC.

The MIC is the least concentration at which growth counts as inhibited. Turning to `C[C@@H](NC(=O)Cn1cnnn1)[C@H]1C(=O)N2C(C(=O)O)=C(S[C@@H]3CN[C@H](C(=O)N4CCC5NCCCC54)C3)[C@H](C)[C@H]12` (single isomer, unassigned) [Example 468], the MIC was found to be 8 µg/mL (≈ 13.9 µM) in assay [1] (setting [5]), 2 µg/mL (≈ 3.49 µM) in assay [2] (setting [6]), 4 µg/mL (≈ 6.97 µM) in assay [3] (setting [7]) and 0.5 µg/mL (≈ 0.872 µM) in assay [4] (setting [8]).

For `C[C@@H](NC(=O)Cn1cnnn1)[C@H]1C(=O)N2C(C(=O)O)=C(S[C@@H]3CN[C@H](C(=O)N4CCC5CNCC54CO)C3)[C@H](C)[C@H]12` (single isomer, unassigned) [Example 561], the MIC in assay [1] (setting [5]) came to 8 µg/mL (≈ 13.6 µM); in assay [2] (setting [6]), 2 µg/mL (≈ 3.39 µM); in assay [3] (setting [7]), 4 µg/mL (≈ 6.78 µM); in assay [4] (setting [8]) it was 0.5 µg/mL (≈ 0.848 µM).

As for `C[C@@H](NC(=O)Cn1cnnn1)[C@H]1C(=O)N2C(C(=O)O)=C(S[C@@H]3CN[C@H](C(=O)N4C[C@H]5CNC[C@@]5(CO)C4)C3)[C@H](C)[C@H]12` [Example 524, (4R,5S,6R)-6-((R)-1-(2-(1H-tetrazol-1-yl)acetamido)ethyl)-3-((3S,5S)-5-((3aR,6aR)-3a-(hydroxymethyl)octahydropyrrolo[3,4-c]pyrrole-2-carbonyl)pyrrolidin-3-ylthio)-4-methyl-7-oxo-1-azabicyclo[3.2.0]hept-2-ene-2-carboxylic acid], the MIC in assay [1] (setting [5]) came to 1 µg/mL (≈ 1.7 µM); in assay [2] (setting [6]) it was 2 µg/mL (≈ 3.39 µM); in assay [3] (setting [7]), 4 µg/mL (≈ 6.78 µM); in assay [4] (setting [8]), 0.25 µg/mL (≈ 0.424 µM).

On to `C[C@@H](NC(=O)[C@@H](N)Cn1cnnn1)[C@H]1C(=O)N2C(C(=O)O)=C(S[C@@H]3CN[C@H](C(=O)N(C)C)C3)[C@H](C)[C@H]12` [Example 322, (4R,5S,6R)-6-((R) - 1-((S)-2-amino-3-(1H-tetrazol-1-yl)propanamido)ethyl)-3-((3S,5S)-5-(dimethylcarbamoyl)pyrrolidin-3-ylthio)-4-methyl-7-oxo-1-azabicyclo[3.2.0]hept-2-ene-2-carboxylic acid], for which the MIC in assay [1] (setting [5]) was > 128 µg/mL; in assay [2] (setting [6]), 16 µg/mL (≈ 30.7 µM); in assay [3] (setting [7]), 16 µg/mL (≈ 30.7 µM); in assay [4] (setting [8]) it was 2 µg/mL (≈ 3.83 µM).

Take `C[C@@H](NC(=O)Cn1cnnn1)[C@H]1C(=O)N2C(C(=O)O)=C(S[C@@H]3CN[C@H](C(=O)N4CC5CCNCC5C4)C3)[C@H](C)[C@H]12` (single isomer, unassigned) [Example 527]: the MIC was determined as 1 µg/mL (≈ 1.74 µM) in assay [1] (setting [5]), 1 µg/mL (≈ 1.74 µM) in assay [2] (setting [6]), 4 µg/mL (≈ 6.97 µM) in assay [3] (setting [7]) and 0.125 µg/mL (≈ 0.218 µM) in assay [4] (setting [8]).

As for `C[C@@H](NC(=O)Cn1cnnn1)[C@H]1C(=O)N2C(C(=O)O)=C(S[C@@H]3CN[C@H](C(=O)N4CCC(N)C(F)C4)C3)[C@H](C)[C@H]12` (single isomer, unassigned) [Example 425], the minimal inhibitory concentration (MIC) in assay [1] (setting [5]) came to 2 µg/mL (≈ 3.54 µM); in assay [2] (setting [6]) it was 2 µg/mL (≈ 3.54 µM); in assay [3] (setting [7]) it was 4 µg/mL (≈ 7.07 µM); in assay [4] (setting [8]) it was 0.25 µg/mL (≈ 0.442 µM).

Turning to `C[C@@H](NC(=O)C(F)F)[C@H]1C(=O)N2C(C(=O)O)=C(S[C@@H]3CN[C@H](CN)C3)[C@H](C)[C@H]12` [Example 244], the MIC in assay [1] (setting [5]) is 64 µg/mL (≈ 153 µM); in assay [2] (setting [6]) it was 4 µg/mL (≈ 9.56 µM); in assay [3] (setting [7]) it was 1 µg/mL (≈ 2.39 µM); in assay [4] (setting [8]), 1 µg/mL (≈ 2.39 µM).

As for `C[C@@H](NC(=O)Cn1cnnn1)[C@H]1C(=O)N2C(C(=O)O)=C(S[C@@H]3CN[C@H](C(=O)N4CC[C@@H](N)C4)C3)[C@H](C)[C@H]12` [Example 298, (4R,5S,6R)-6-((R)-1-(2-(1H-tetrazol-1-yl)acetamido)ethyl)-3-((3S,5S)-5-((R)-3-aminopyrrolidine-1-carbonyl)pyrrolidin-3-ylthio)-4-methyl-7-oxo-1-azabicyclo[3.2.0]hept-2-ene-2-carboxylic acid], the minimum inhibitory concentration (MIC) turned out to be 1 µg/mL (≈ 1.87 µM) in assay [1] (setting [5]), 1 µg/mL (≈ 1.87 µM) in assay [2] (setting [6]), 1 µg/mL (≈ 1.87 µM) in assay [3] (setting [7]) and 0.125 µg/mL (≈ 0.234 µM) in assay [4] (setting [8]).

As to `C[C@@H](NC(=O)Cn1cnnn1)[C@H]1C(=O)N2C(C(=O)O)=C(S[C@@H]3CN[C@H](C(=O)N4CC5CCCNC5C4)C3)[C@H](C)[C@H]12` (single isomer, unassigned) [Example 459], the MIC in assay [1] (Meropenem susceptible P. aeruginosa ATCC27853) is 2 µg/mL (≈ 3.49 µM); in assay [2] (KPC-2 K. pneumoniae ATCC BAA-1705) it was 1 µg/mL (≈ 1.74 µM); in assay [3] it was 1 µg/mL (≈ 1.74 µM); in assay [4] (ESBL −ve E. coli ATCC25922), 0.125 µg/mL (≈ 0.218 µM).

Turning to `C[C@@H](NC(=O)CSC(F)F)[C@H]1C(=O)N2C(C(=O)O)=C(S[C@@H]3CN[C@H](C(=O)N4CC[C@@H](N)C4)C3)[C@H](C)[C@H]12` [Example 507, (4R,5S,6R)-3-((3S,5S)-5-((R)-3-aminopyrrolidine-1-carbonyl)pyrrolidin-3-ylthio)-6-((R)-1-(2-(difluoromethylthio)acetamido)ethyl)-4-methyl-7-oxo-1-azabicyclo[3.2.0]hept-2-ene-2-carboxylic acid], the minimum inhibitory concentration (MIC) in assay [1] (setting [5]) was 64 µg/mL (≈ 117 µM); in assay [2] (setting [6]) it was 8 µg/mL (≈ 14.6 µM); in assay [3] (setting [7]) it was 2 µg/mL (≈ 3.65 µM); in assay [4] (setting [8]), 1 µg/mL (≈ 1.83 µM).

Regarding `C[C@@H](NC(=O)Cn1cnnn1)[C@H]1C(=O)N2C(C(=O)O)=C(S[C@@H]3CN[C@H](C(=O)N4C[C@H](N)C[C@@H]4CO)C3)[C@H](C)[C@H]12` [Example 474, (4R,5S,6R)-6-((R)-1-(2-(1H-tetrazol-1-yl)acetamido)ethyl)-3-((3S,5S)-5-((2R,4R)-4-amino-2-(hydroxymethyl)pyrrolidine-1-carbonyl)pyrrolidin-3-ylthio)-4-methyl-7-oxo-1-azabicyclo[3.2.0]hept-2-ene-2-carboxylic acid], the minimum inhibitory concentration (MIC) in assay [1] (setting [5]) is 2 µg/mL (≈ 3.55 µM); in assay [2] (setting [6]) it was 2 µg/mL (≈ 3.55 µM); in assay [3] (setting [7]) it was 4 µg/mL (≈ 7.1 µM); in assay [4] (setting [8]), 0.25 µg/mL (≈ 0.444 µM).

In the case of `C[C@@H](NC(=O)Cc1nnc(C(F)(F)F)o1)[C@H]1C(=O)N2C(C(=O)O)=C(S[C@@H]3CN[C@H](C(=O)N4CC[C@@H](N)C4)C3)[C@H](C)[C@H]12` [Example 394, (4R,5S,6R)-3-((3S,5S)-5-((R)-3-aminopyrrolidine-1-carbonyl)pyrrolidin-3-ylthio)-4-methyl-7-oxo-6-((R)-1-(2-(5-(trifluoromethyl)-1,3,4-oxadiazol-2-yl)acetamido)ethyl)-1-azabicyclo[3.2.0]hept-2-ene-2-carboxylic acid], the MIC came to 128 µg/mL (≈ 213 µM) in assay [1] (setting [5]), 32 µg/mL (≈ 53.2 µM) in assay [2] (setting [6]), 8 µg/mL (≈ 13.3 µM) in assay [3] (setting [7]) and 2 µg/mL (≈ 3.32 µM) in assay [4] (setting [8]).

Regarding `C[C@@H](NC(=O)Cn1cnnn1)[C@H]1C(=O)N2C(C(=O)O)=C(S[C@@H]3CN[C@H](C(=O)N4CCC[C@@H](N)C4)C3)[C@H](C)[C@H]12` [Example 336, (4R,5S,6R)-6-((R) - 1-(2-(1H-tetrazol-1-yl)acetamido)ethyl)-3-((3S,5S)-5-((R)-3-aminopiperidine-1-carbonyl)pyrrolidin-3-ylthio)-4-methyl-7-oxo-1-azabicyclo[3.2.0]hept-2-ene-2-carboxylic acid], the MIC in assay [1] (setting [5]) came to 8 µg/mL (≈ 14.6 µM); in assay [2] (setting [6]), 4 µg/mL (≈ 7.3 µM); in assay [3] (setting [7]), 4 µg/mL (≈ 7.3 µM); in assay [4] (setting [8]) it was 1 µg/mL (≈ 1.83 µM).

As for `C[C@@H](NC(=O)Cn1cnnn1)[C@H]1C(=O)N2C(C(=O)O)=C(S[C@@H]3CN[C@H](C(=O)N4CC[C@H](N)[C@@H](O)C4)C3)[C@H](C)[C@H]12` [Example 554, (4R,5S,6R)-6-((R)-1-(2-(1H-tetrazol-1-yl)acetamido)ethyl)-3-((3S,5S)-5-((3S,4S)-4-amino-3-hydroxypiperidine-1-carbonyl)-pyrrolidin-3-ylthio)-4-methyl-7-oxo-1-azabicyclo[3.2.0]hept-2-ene-2-carboxylic acid], the MIC in assay [1] (setting [5]) worked out at 2 µg/mL (≈ 3.55 µM); in assay [2] (setting [6]) it was 2 µg/mL (≈ 3.55 µM); in assay [3] (setting [7]) it was 4 µg/mL (≈ 7.1 µM); in assay [4] (setting [8]), 0.5 µg/mL (≈ 0.887 µM).

With `C[C@H]([C@H]1C(=O)N2C(C(=O)O)=C(S[C@@H]3CN[C@H](C(=O)N(C)C)C3)[C@H](C)[C@H]12)n1ncnn1` [Example 313, (4R,5S,6S)-6-((R) - 1-(2H-tetrazol-2-yl)ethyl)-3-((3S,5S)-5-(dimethylcarbamoyl)pyrrolidin-3-ylthio)-4-methyl-7-oxo-1-azabicyclo[3.2.0]hept-2-ene-2-carboxylic acid], the MIC in assay [1] (setting [5]) is > 128 µg/mL; in assay [2] (setting [6]) it was 16 µg/mL (≈ 36.7 µM); in assay [3] (setting [7]) it was 4 µg/mL (≈ 9.18 µM); in assay [4] (setting [8]), 1 µg/mL (≈ 2.3 µM).

Consider `C[C@@H](NC(=O)[C@H]1CS(=O)(=O)CN1)[C@H]1C(=O)N2C(C(=O)O)=C(S[C@@H]3CN[C@H](C(=O)N(C)C)C3)[C@H](C)[C@H]12` [Example 284], for which the MIC turned out to be 64 µg/mL (≈ 121 µM) in assay [1] (setting [5]), 4 µg/mL (≈ 7.55 µM) in assay [2] (setting [6]), 1 µg/mL (≈ 1.89 µM) in assay [3] (setting [7]) and 1 µg/mL (≈ 1.89 µM) in assay [4] (setting [8]).

Consider `C[C@@H](NC(=O)Cn1cnnn1)[C@H]1C(=O)N2C(C(=O)O)=C(S[C@@H]3CN[C@H](C(=O)N4CC5CCNC5(CO)C4)C3)[C@H](C)[C@H]12` (single isomer, unassigned) [Example 555], for which the MIC was 2 µg/mL (≈ 3.39 µM) in assay [1] (setting [5]), 1 µg/mL (≈ 1.7 µM) in assay [2] (setting [6]), 4 µg/mL (≈ 6.78 µM) in assay [3] (setting [7]) and 0.25 µg/mL (≈ 0.424 µM) in assay [4] (setting [8]).

Consider `C[C@@H](NC(=O)CNC(=N)N)[C@H]1C(=O)N2C(C(=O)O)=C(S[C@@H]3CN[C@H](C(=O)N4CC[C@@H](N)C4)C3)[C@H](C)[C@H]12` [Example 242], for which the MIC is 8 µg/mL (≈ 15.3 µM) in assay [1] (setting [5]), 2 µg/mL (≈ 3.83 µM) in assay [2] (setting [6]), 16 µg/mL (≈ 30.6 µM) in assay [3] (setting [7]) and 2 µg/mL (≈ 3.83 µM) in assay [4] (setting [8]).

As to `C[C@@H](NC(=O)Cn1cnnn1)[C@H]1C(=O)N2C(C(=O)O)=C(S[C@@H]3CN[C@H](C(=O)N4CCN(C[C@H](N)CN)CC4)C3)[C@H](C)[C@H]12` [Example 457, (4R,5S,6R)-6-((R)-1-(2-(1H-tetrazol-1-yl)acetamido)ethyl)-3-((3S,5S)-5-(4-((R)-2,3-diaminopropyl)piperazine-1-carbonyl)pyrrolidin-3-ylthio)-4-methyl-7-oxo-1-azabicyclo[3.2.0]hept-2-ene-2-carboxylic acid], the MIC in assay [1] (setting [5]) was found to be 1 µg/mL (≈ 1.65 µM); in assay [2] (setting [6]), 1 µg/mL (≈ 1.65 µM); in assay [3] (setting [7]) it was 2 µg/mL (≈ 3.3 µM); in assay [4] (setting [8]), 0.25 µg/mL (≈ 0.413 µM).
